Results: patent US11566007B2, “Ras inhibitors” (Revolution Medicines, Inc., priority 2019, dated 2023)

Legend:
[1] = tested on: NCI-H358 cells (K-Ras G12C); assay: Potency assay: pERK in NCI-H358 cells; assay type: cell-based, human; conditions: Homo sapiens, NCI-H358; H358 KRAS G12C; read-out: pERK EC50
How it was run: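 4 h cpd, 37 °C; 10-pt 3-fold series, 10 mM DMSO top stock, duplicates. Readout pERK: AlphaLISA SureFire Ultra or In-Cell Western (IR-800CW secondary, DRAQ5 DNA stain). IC50, 4-PL fit vs log conc.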

[2] = biological target: K-Ras G13C (Homo sapiens (Human), UniProt P01116+P62937, G13C); assay: Ras-Raf (BRAF RBD) disruption / FRET / MOA assay, KRAS G13C; assay type: biochemical; conditions: KRAS G13C; Ras-Raf disruption/FRET/MOA assay; read-out: IC50* KRAS G13C FRET data
How it was run: (§1)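 Ras:RAF disruption was scored as a fall in TR-FRET ratio relative to DMSO. Compound ranged in 3-fold steps over 10 points from 30 μM final; incubation ran 3 h at 25° C, detection antibodies a further 1.5 h. Reported as IC50.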

[3] = biological target: KRAS G12V (Homo sapiens (Human), UniProt P01116+P62937, G12V); assay: Ras-Raf (BRAF RBD) disruption / FRET / MOA assay, KRAS G12V; assay type: biochemical; conditions: read-out: IC50* KRAS G12V FRET data
How it was run: as §1

[4] = biological target: KRAS WT (Homo sapiens (Human), UniProt P01116+P62937); assay: Ras-Raf (BRAF RBD) disruption / FRET / MOA assay, KRAS WT; assay type: biochemical; conditions: read-out: IC50* KRAS WT FRET data
How it was run: as §1

[5] = biological target: KRAS G13D (Homo sapiens (Human), UniProt P01116+P62937, G13D); assay: Ras-Raf (BRAF RBD) disruption / FRET / MOA assay, KRAS G13D; assay type: biochemical; conditions: read-out: IC50* KRAS G13D FRET data
How it was run: as §1

[6] = biological target: KRAS Q61H (Homo sapiens (Human), UniProt P01116+P62937, Q61H); assay: Ras-Raf (BRAF RBD) disruption / FRET / MOA assay, KRAS Q61H; assay type: biochemical; conditions: Ras-Raf disruption/FRET/MOA assay; class symbols; read-out: KRAS Q61H FRET data IC50
How it was run: (§2)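 TR-FRET disruption of nucleotide-loaded Ras binding to BRAF RBD via compound-driven ternary complex with cyclophilin A. Compound as 10-point 3-fold series from 30 μM final, 3 h at 25° C, then anti-His Eu-W1024 (10 nM) and anti-GST allophycocyanin (50 nM) for 1.5 h. IC50 from decreased FRET ratio versus DMSO.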

[7] = biological target: NRAS WT (Homo sapiens (Human), UniProt P01111+P62937); assay: Ras-Raf (BRAF RBD) disruption / FRET / MOA assay, NRAS WT; assay type: biochemical; conditions: read-out: IC50* NRAS WT FRET data
How it was run: as §2

NRAS WT, sequence (P01111 whole entry): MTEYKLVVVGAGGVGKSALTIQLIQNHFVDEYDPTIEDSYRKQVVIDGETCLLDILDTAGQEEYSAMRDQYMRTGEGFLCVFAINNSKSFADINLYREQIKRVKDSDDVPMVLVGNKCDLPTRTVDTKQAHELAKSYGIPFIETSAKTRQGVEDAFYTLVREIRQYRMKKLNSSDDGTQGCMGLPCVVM
NRAS WT, sequence (P62937 whole entry): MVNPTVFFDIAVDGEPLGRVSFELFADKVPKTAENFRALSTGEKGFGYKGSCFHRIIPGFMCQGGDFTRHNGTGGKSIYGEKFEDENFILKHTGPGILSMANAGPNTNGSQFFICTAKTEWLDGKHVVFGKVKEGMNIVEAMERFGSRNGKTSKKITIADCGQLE
KRAS WT, sequence (P01116-2 other isoform, or with tags, fused parts or gaps): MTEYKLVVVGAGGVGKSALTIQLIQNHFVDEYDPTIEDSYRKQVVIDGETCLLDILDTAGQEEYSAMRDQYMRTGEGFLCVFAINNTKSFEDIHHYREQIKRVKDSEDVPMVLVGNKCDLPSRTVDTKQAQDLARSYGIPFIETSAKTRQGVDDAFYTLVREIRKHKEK
KRAS WT, sequence (P62937 whole entry): as the sequence (P62937 whole entry) above
KRAS G12V, sequence (P01116-2 other isoform, or with tags, fused parts or gaps G12V): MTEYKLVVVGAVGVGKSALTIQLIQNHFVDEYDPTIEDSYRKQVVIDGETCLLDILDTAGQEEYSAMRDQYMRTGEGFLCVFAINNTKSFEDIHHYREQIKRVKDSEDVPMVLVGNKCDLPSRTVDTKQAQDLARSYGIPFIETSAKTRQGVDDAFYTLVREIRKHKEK
KRAS G12V, sequence (P62937 whole entry): as the sequence (P62937 whole entry) above
K-Ras G13C, sequence (P01116-2 other isoform, or with tags, fused parts or gaps G13C): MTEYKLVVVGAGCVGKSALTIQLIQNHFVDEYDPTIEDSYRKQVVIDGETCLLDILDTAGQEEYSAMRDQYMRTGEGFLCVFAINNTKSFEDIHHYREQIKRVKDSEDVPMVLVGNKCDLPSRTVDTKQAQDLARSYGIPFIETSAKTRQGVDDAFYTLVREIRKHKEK
K-Ras G13C, sequence (P62937 whole entry): as the sequence (P62937 whole entry) above
KRAS G13D, sequence (P01116-2 other isoform, or with tags, fused parts or gaps G13D): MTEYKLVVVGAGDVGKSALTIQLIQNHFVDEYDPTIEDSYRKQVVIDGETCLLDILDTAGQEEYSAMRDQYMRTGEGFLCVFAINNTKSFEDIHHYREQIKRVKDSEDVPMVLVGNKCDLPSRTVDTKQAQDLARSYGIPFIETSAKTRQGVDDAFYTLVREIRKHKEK
KRAS G13D, sequence (P62937 whole entry): as the sequence (P62937 whole entry) above
KRAS Q61H, sequence (P01116-2 other isoform, or with tags, fused parts or gaps Q61H): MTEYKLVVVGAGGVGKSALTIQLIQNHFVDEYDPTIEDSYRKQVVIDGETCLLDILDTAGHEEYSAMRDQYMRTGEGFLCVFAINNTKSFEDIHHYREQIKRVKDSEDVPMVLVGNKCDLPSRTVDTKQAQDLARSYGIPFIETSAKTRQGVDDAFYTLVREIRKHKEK
KRAS Q61H, sequence (P62937 whole entry): as the sequence (P62937 whole entry) above

Compound	EC50 [1]	IC50 [2]	IC50 [3]	IC50 [4]	IC50 [5]	IC50 [6]	IC50 [7]
C=CC(=O)Nc1ccc(C(=O)N(C)[C@H](C(=O)N[C@H]2Cc3cc(O)cc(c3)-c3ccc4c(c3)c(c(-c3cccnc3[C@H](C)OC)n4CC)CC(C)(C)COC(=O)[C@@H]3CCCN(N3)C2=O)C(C)C)nc1 (atropisomer, axis not shown) [Example A252]	< 5000 nM	< 10 nM	100 to 1000 nM	100 to 1000 nM	100 to 1000 nM	100 to 1000 nM	100 to 1000 nM
C=CC(=O)N1CCN(C(=O)N(C)[C@H](C(=O)N[C@H]2Cc3cc(O)cc(c3)-c3ccc4c(c3)c(c(-c3cccnc3[C@H](C)OC)n4CC)CC(C)(C)COC(=O)[C@@H]3CCCN(N3)C2=O)C(C)C)CC1 (atropisomer, axis not shown) [Example A262]	< 5000 nM	< 10 nM	10 to 100 nM	10 to 100 nM	10 to 100 nM	10 to 100 nM	10 to 100 nM
C=CS(=O)(=O)N1CC2(CCN([C@H](C(=O)N[C@H]3Cc4cc(O)cc(c4)-c4ccc5c(c4)c(c(-c4cccnc4[C@H](C)OC)n5CC)CC(C)(C)COC(=O)[C@@H]4CCCN(N4)C3=O)C(C)C)C2=O)C1 (atropisomer, axis not shown) [Example A297]	< 5000 nM	< 10 nM	100 to 1000 nM	10 to 100 nM	100 to 1000 nM	< 10 nM	10 to 100 nM
C=CC(=O)N1CC[C@H](C(=O)N(C)[C@H](C(=O)N[C@H]2Cc3cccc(c3)-c3ccc4c(c3)c(c(-c3cccnc3[C@H](C)OC)n4CC(F)(F)F)CC(C)(C)COC(=O)[C@@H]3CCCN(N3)C2=O)C(C)C)C1 (atropisomer, axis not shown) [Example A332]	< 5000 nM	100 to 1000 nM	1000 to 10000 nM	1000 to 10000 nM	1000 to 10000 nM	100 to 1000 nM	1000 to 10000 nM
C=CC(=O)N1CC[C@H](C(=O)N(C)[C@H](C(=O)N[C@H]2Cc3cc(F)cc(c3)-c3ccc4c(c3)c(c(-c3cccnc3[C@H](C)OC)n4CC)CC(C)(C)COC(=O)[C@@H]3CCCN(N3)C2=O)C(C)C)C1 (atropisomer, axis not shown) [Example A342]	< 5000 nM	100 to 1000 nM	1000 to 10000 nM	1000 to 10000 nM	1000 to 10000 nM	100 to 1000 nM	1000 to 10000 nM
CCn1c(-c2cccnc2[C@H](C)OC)c2c3cc(ccc31)-c1cccc(c1)C[C@H](NC(=O)[C@@H](COC1CN(C(=O)C#CC(C)(C)N3CCC3)C1)C(C)C)C(=O)N1CCC[C@H](N1)C(=O)OCC(C)(C)C2 (atropisomer, axis not shown) [Example A346]	< 5000 nM	1000 to 10000 nM	1000 to 10000 nM	> 10000 nM	> 10000 nM	1000 to 10000 nM	> 10000 nM
CO[C@@H](C)c1ncccc1-c1c2c3cc(ccc3n1CC(F)(F)F)-c1cc(F)cc(c1)C[C@H](NC(=O)[C@@H](COC1CN(C(=O)C#CC(C)(C)N(C)C)C1)C(C)C)C(=O)N1CCC[C@H](N1)C(=O)OCC(C)(C)C2 (atropisomer, axis not shown) [Example A348]	< 5000 nM	1000 to 10000 nM	1000 to 10000 nM	1000 to 10000 nM	> 10000 nM	1000 to 10000 nM	1000 to 10000 nM
CCn1c(-c2cccnc2[C@H](C)OC)c2c3cc(ccc31)-c1cccc(c1)C[C@H](NC(=O)[C@H](C(C)C)N1CO[C@]3(CCN(C(=O)C#CC(C)(C)N4CCC4)C3)C1=O)C(=O)N1CCC[C@H](N1)C(=O)OCC(C)(C)C2 (atropisomer, axis not shown) [Example A351]	< 5000 nM	100 to 1000 nM	1000 to 10000 nM	100 to 1000 nM	1000 to 10000 nM	100 to 1000 nM	100 to 1000 nM
C=CC(=O)N1CC[C@@]2(CCN(C(=O)N(C)[C@H](C(=O)N[C@H]3Cc4nc(cs4)-c4ccc5c(c4)c(c(-c4cccnc4[C@H](C)OC)n5CC)CC(C)(C)COC(=O)[C@@H]4CCCN(N4)C3=O)C(C)C)C2)C1 (atropisomer, axis not shown) [Example A367]	< 5000 nM	100 to 1000 nM	100 to 1000 nM	10 to 100 nM	100 to 1000 nM	10 to 100 nM	10 to 100 nM
C=CC(=O)N(C)CC1CN(C(=O)N(C)[C@H](C(=O)N[C@H]2Cc3nc(cs3)-c3ccc4c(c3)c(c(-c3cccnc3[C@H](C)OC)n4CC)CC(C)(C)COC(=O)[C@@H]3CCCN(N3)C2=O)C(C)C)C1 (atropisomer, axis not shown) [Example A368]	< 5000 nM	100 to 1000 nM	10 to 100 nM	100 to 1000 nM	100 to 1000 nM	10 to 100 nM	10 to 100 nM
C=CC(=O)N1CC[C@]2(C1)OCN([C@H](C(=O)N[C@H]1Cc3cccc(c3)-c3ccc4c(c3)c(c(-c3cccnc3[C@H](C)OC)n4CC)CC(C)(C)COC(=O)[C@@H]3CCCN(N3)C1=O)C(C)C)C2=O (atropisomer, axis not shown) [Example A371]	< 5000 nM	100 to 1000 nM	> 10000 nM	1000 to 10000 nM	> 10000 nM	1000 to 10000 nM	1000 to 10000 nM
CO[C@@H](C)c1ncccc1-c1c2c3cc(ccc3n1CC(F)(F)F)N1CCO[C@@H](C[C@H](NC(=O)[C@@H](COC3CN(C(=O)C#CC(C)(C)N(C)C)C3)C(C)C)C(=O)N3CCC[C@H](N3)C(=O)OCC(C)(C)C2)C1 (atropisomer, axis not shown) [Example A375, (2R)-2-(((1-(4-(dimethylamino)-4-methylpent-2-ynoyl)azetidin-3-yl)oxy)methyl)-N-((2^2S,6^3S,4S)-1^2-(2-((S)-1-methoxyethyl)pyridin-3-yl)-10,10-dimethyl-5,7-dioxo-1^1-(2,2,2-trifluoroethyl)-6^1,6^2,6^3,6^4,6^5,6^6-hexahydro-1^1H-8-oxa-2(4,2)-morpholina-1(5,3)-indola-6(1,3)-pyridazinacycloundecaphane-4-yl)-3-methylbutanamide]	< 5000 nM	1000 to 10000 nM	1000 to 10000 nM	1000 to 10000 nM	> 10000 nM	> 10000 nM	1000 to 10000 nM
C=CC(=O)N(C)[C@@H]1CCCN(C(=O)N(C)[C@H](C(=O)N[C@H]2Cc3nc(cs3)-c3ccc4c(c3)c(c(-c3cccnc3[C@H](C)OC)n4CC)CC(C)(C)COC(=O)[C@@H]3CCCN(N3)C2=O)C(C)C)C1 (atropisomer, axis not shown) [Example A382]	< 5000 nM	100 to 1000 nM	100 to 1000 nM	10 to 100 nM	100 to 1000 nM	10 to 100 nM	10 to 100 nM
C=CC(=O)N(C)C1CCN(C(=O)N(C)[C@H](C(=O)N[C@H]2Cc3nc(cs3)-c3ccc4c(c3)c(c(-c3cccnc3[C@H](C)OC)n4CC)CC(C)(C)COC(=O)[C@@H]3CCCN(N3)C2=O)C(C)C)CC1 (atropisomer, axis not shown) [Example A383]	< 5000 nM	10 to 100 nM	10 to 100 nM	10 to 100 nM	100 to 1000 nM	10 to 100 nM	10 to 100 nM
C=CC(=O)N1C[C@@H](C)N(C(=O)N(C)[C@H](C(=O)N[C@H]2Cc3nc(cs3)-c3ccc4c(c3)c(c(-c3cccnc3[C@H](C)OC)n4CC)CC(C)(C)COC(=O)[C@@H]3CCCN(N3)C2=O)C(C)C)[C@H](C)C1 (atropisomer, axis not shown) [Example A388]	< 5000 nM	10 to 100 nM	10 to 100 nM	< 10 nM	10 to 100 nM	< 10 nM	< 10 nM
